{"source": "patent US20250144107A1", "about": "“USE OF A PIKFYVE INHIBITOR IN COMBINATION WITH IMMUNOTHERAPY” (The Regents of the University of Michigan, priority 2023, published 2025)", "key": {"cDCs": {"test_system": "cDCs", "assay": "Phenotype of cultured cDCs (flow cytometry, western blot)", "type": "cell-based, mice", "procedure": "FIG. 13G (Left) is a line graph of the relative median fluorescent intensity of the surface MHC-I on DMSO or apilimod-treated cDCs treated for 20 hours after 6 days of culture. FIG. 13G (Right) is a box and whisker plot of the surface MHC-I on DMSO or apilimod-treated cDCs treated for 20 hours after 6 days of culture\nFIG. 13H a western blot showing the total vinculin, loading control, and total MHC-I in DMSO or apilimod-treated, 20 hours, cDC lysates after 6 days of culture.\nFIG. 13K (Left) is a line graph of the relative median fluorescent intensity of the surface MHC-II on DMSO or apilimod-treated, 20 hours, cDCs treated after 6 days of culture. FIG. 13K (Right) is a box and whisker plot of the surface MHC-II on DMSO or apilimod-treated, 20 hours, cDCs treated after 6 days of culture.\nFIG. 13L a western blot showing the total vinculin, loading control, and total MHC-II in DMSO or apilimod-treated, 20 hours, cDC lysates after 6 days of culture.\nFIG. 13N a western blot showing the total histone H3, loading control, and total CD80 and CD86 in apilimod-treated, 20 hours, PIKfyve WT vs. KO cDC lysates after 6 days of culture.\nFIG. 13P is a series of six scatter plots of surface CD80 and CD86 on DMSO or apilimod-treated cDCs, with or without 20 hours of PolyI:C, 50 μg/ml, or lipopolysaccharide (LPS), 50 ng/ml, treatment after 6 days of culture.\nFIG. 13R a western blot showing the total vinculin, loading control, and total CD40 in DMSO or apilimod-treated, 20 hours, cDC lysates treated with or without additional LPS, 50 ng/ml, after 6 days of culture day 6.\nFIG. 19B is a line graph of representative density plot of median fluorescent intensity of surface XCR1 in DMSO or apilimod-treated, 20 hours, cDCs after 6 days of culture.\nFIG. 26G is a line graph of the relative median fluorescent intensity of the surface MHC-I, H2-kb, H2-kd, on DMSO or apilimod-treated cDCs with or without PolyI:C, 50 μg/ml or LPS, 50 ng/ml, treatment, 20 hours, after 6 days of culture.\nFIG. 26H is a line graph of the relative median fluorescent intensity of the surface MHC-II, MHC-IA-IE, on DMSO or apilimod-treated cDCs with or without PolyI:C, 50 μg/ml or LPS, 50 ng/ml, treatment, 20 hours, after 6 days of culture."}, "[1]": {"test_system": "cDCs co-cultured with OT-I and OT-II cells", "assay": "cDC antigen presentation and OT-I/OT-II co-culture", "type": "cell-based, mice", "procedure": "FIG. 13T is a box and whisker plot of the percentage of IFNγ^+ OT-I cells after 72 hours of co-culture with DMSO or apilimod pre-treated cDCs with or without sOVA, 10 μg/ml.\nFIG. 13V is a box and whisker plot of the percentage of IFNγ^+ OT-II cells after 72 hours of co-culture with DMSO or apilimod pre-treated cDCs with or without sOVA, 10 μg/ml.\nFIG. 19G is a line graph (Left) and box and whisker plot (Right) of relative median fluorescent intensity of surface H-2kb-SIINFEKL in DMSO or apilimod-treated cDCs with or without 12 hours of pOVA, 100 ng/ml, treatment.\nFIG. 19H is a scatter plot (Left) and box and whisker plot (Right) of relative median fluorescent intensity of percent H2kb-SIINFEKL^+ cells in DMSO or apilimod-treated cDCs with or without 12 hours of pOVA, 100 ng/ml, treatment.\nFIG. 20D is a scatter plot (Left) and box and whisker plot (Right) of percentage of IFNγ^+ OT-I cells after 48 hours of co-culture with DMSO or apilimod pre-treated cDCs with or without pOVA, 100 ng/ml.\nFIG. 20E is a scatter plot (Left) and box and whisker plot (Right) of percentage of granzyme B^+ OT-I cells after 48 hours of co-culture with DMSO or apilimod pre-treated cDCs with or without pOVA, 100 ng/ml.\nFIG. 20H is a box and whisker plot of the percent of Ki67^+ OT-I cells after 72 hours of co-culture with DMSO or apilimod pre-treated cDCs with or without sOVA, 10 μg/ml.\nFIG. 20I is a box and whisker plot of the percent of Ki67^+ OT-II cells after 72 hours of co-culture with DMSO or apilimod pre-treated cDCs with or without sOVA, 10 μg/ml."}, "[2]": {"test_system": "subcutaneous B16F10 tumors", "assay": "Subcutaneous B16F10 tumor model", "type": "in vivo, mice", "procedure": "FIG. 15D is a line graph of the subcutaneous tumor volume of B16F10 tumors in PIKfyve KO mice or WT mice treated with anti-PD1 antibody, 200 μg every 3 days, or isotype control after 15 days.\nFIG. 16D is a line graph of the subcutaneous tumor volume of B16F10 tumors in mice treated with vehicle or apilimod, 30 mg/kg daily, in wild-type or Batf3^−/− mice.\nFIG. 26E is a line graph of the subcutaneous tumor volume of B16F10 tumors in mice treated with vehicle or apilimod, 30 mg/kg daily, in NSG™ mice.\nFIG. 26F is a line graph of the subcutaneous tumor volume of B16F10 tumors in mice treated with vehicle versus apilimod, 30 mg/kg daily, in NSG™ mice."}}}
{"smiles": "Cc1cccc(/C=N/Nc2cc(N3CCOCC3)nc(OCCc3ccccn3)n2)c1", "note": "[apilimod, N-[(E)-(3-methylphenyl)methylideneamino]-6-morpholin-4-yl-2-(2-pyridin-2-ylethoxy)pyrimidin-4-amine]", "values": [{"measurement": "surface and total protein expression of MHC-II", "setting": "cDCs; 20 hours", "value": "increased"}, {"measurement": "MHC-I and MHC-II expression", "setting": "cDCs; DCs in vitro, each agent", "value": "stimulated"}, {"measurement": "CD80 and CD86 expression", "setting": "cDCs; WT DCs, in a dose-dependent manner", "value": "induced"}, {"measurement": "total expression of CD40", "setting": "cDCs; added to LPS treatment, vs DMSO", "value": "increased"}, {"measurement": "CD80+CD86+ cDCs", "setting": "cDCs; alone and in combination with PolyI:C and LPS", "value": "increase"}, {"measurement": "MHC-I and MHC-II expression", "setting": "cDCs; apilimod added to PolyI:C or LPS", "value": "further enhanced"}, {"measurement": "surface and total protein expression of MHC-I", "setting": "cDCs; cDCs from WT mice, 20 hours", "value": "increased"}, {"measurement": "total surface expression of XCR1", "setting": "cDCs; cultured cDCs, 20 hours, vs DMSO", "value": "increase"}, {"measurement": "total intensity and percentage of cells with H2-kb-SIINFEKL surface expression", "setting": "[1]; pOVA, vs DMSO", "value": "greater"}, {"measurement": "T cell activation (IFNγ+ and granzyme B+ OT-I cells)", "setting": "[1]; peptide antigen-loaded cDCs, vs DMSO", "value": "increase"}, {"measurement": "percentages of Ki67+ and IFNγ+ OT-I cells", "setting": "[1]; sOVA-loaded cDCs, vs DMSO", "value": "increases"}, {"measurement": "percentages of Ki67+ and IFNγ+ OT-II cells", "setting": "[1]; sOVA-loaded cDCs, vs control", "value": "higher percentages"}, {"measurement": "efficacy in Batf3−/− mice", "setting": "[2]; Batf3−/− mice", "value": "lost"}, {"measurement": "efficacy in NSG mice", "setting": "[2]; NSG mice", "value": "lost"}, {"measurement": "B16F10 tumor growth", "setting": "[2]; WT, non-transgenic mice, vs vehicle", "value": "reduced"}]}
